Results from paper PMC9806890, “Purification and biochemical characterization of two laccase isoenzymes isolated from Trichoderma harzianum S7113 and its application for bisphenol A degradation” (Microbial Cell Factories, 2023).

What was measured:
Lac B (LacB) = tested on: T1, Lac B (LacB); assay: absorbance at […] nm, Lineweaver-Burk; assay type: biochemical, Trichoderma harzianum; conditions: 0.1 M sodium citrate, pH 4.5; ABTS 0.025-0.4 mM; O2 co-substrate
T1 construct: 48 kDa by SDS-PAGE

Lac A (LacA) = tested on: T2, Lac A (LacA); assay: absorbance at […] nm, Lineweaver-Burk; assay type: biochemical, Trichoderma harzianum; conditions: 0.1 M sodium citrate, pH 4.5; ABTS 0.025-0.4 mM; O2 co-substrate
T2 construct: 63 kDa by SDS-PAGE

Q: Which Km (Lac B (LacB)) does the source give for `CCn1c(=NN=c2sc3cc(S(=O)(=O)O)ccc3n2CC)sc2cc(S(=O)(=O)O)ccc21` [ABTS, 2,2ʹ-Azinobis-(3-ethylbenzothiazoline-6-sulfonic acid)] here?
A: Its Km is 64 µM.

Q: What about the Km (Lac A (LacA)) of the same compound?
A: Its Km is 100 µM.
